Laboratory results from US20210300900A1, “OGA INHIBITOR COMPOUNDS” (Janssen Pharmaceutica NV, priority 2018, published 2021).

What was measured:
[1] = target: T1, recombinant human Meningioma Expressed Antigen 5 (MGEA5), also referred to as O-GcNAcase (OGA) (Homo sapiens, UniProt O60502); test: OGA biochemical assay (inhibition of FM-GlcNAc hydrolysis, fluorescence); conditions: FM-GlcNAc substrate; for Emax: read-out: Enzymatic Emax (%); for IC50: read-out: Enzymatic hOGA, pIC50 (converted)
T1 construct: Full length OGA enzyme was purchased at OnGene (cat #TP322411); purchased OnGene (so in the source)
T1 sequence (O60502 1-916): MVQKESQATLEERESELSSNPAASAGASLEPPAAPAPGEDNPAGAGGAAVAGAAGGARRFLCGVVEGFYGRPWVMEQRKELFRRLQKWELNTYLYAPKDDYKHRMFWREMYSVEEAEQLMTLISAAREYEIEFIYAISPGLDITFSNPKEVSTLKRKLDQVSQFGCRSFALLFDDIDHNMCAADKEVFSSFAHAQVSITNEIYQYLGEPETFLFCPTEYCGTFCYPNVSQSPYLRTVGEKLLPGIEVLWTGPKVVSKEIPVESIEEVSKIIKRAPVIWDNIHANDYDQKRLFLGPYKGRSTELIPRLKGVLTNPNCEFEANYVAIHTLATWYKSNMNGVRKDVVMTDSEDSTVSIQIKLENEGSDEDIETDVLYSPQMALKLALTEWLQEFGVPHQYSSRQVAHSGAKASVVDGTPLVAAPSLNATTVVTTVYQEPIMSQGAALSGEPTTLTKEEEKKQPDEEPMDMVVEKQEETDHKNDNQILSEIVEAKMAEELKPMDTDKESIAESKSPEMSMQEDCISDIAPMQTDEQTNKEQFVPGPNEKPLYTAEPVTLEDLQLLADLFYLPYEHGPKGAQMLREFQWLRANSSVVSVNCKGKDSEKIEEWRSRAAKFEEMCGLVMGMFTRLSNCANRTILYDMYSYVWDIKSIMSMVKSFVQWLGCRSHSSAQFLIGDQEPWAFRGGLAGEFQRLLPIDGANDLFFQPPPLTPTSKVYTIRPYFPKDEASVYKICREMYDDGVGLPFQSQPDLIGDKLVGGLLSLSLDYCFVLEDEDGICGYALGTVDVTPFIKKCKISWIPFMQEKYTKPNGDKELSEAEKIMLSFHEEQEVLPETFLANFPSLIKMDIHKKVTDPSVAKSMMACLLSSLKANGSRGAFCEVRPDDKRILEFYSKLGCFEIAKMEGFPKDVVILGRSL
From the text: The assay is based on the inhibition of the hydrolysis of fluorescein mono-β-D-N-Acetyl-Glucosamine (FM-GlcNAc) (Mariappa et al. 2015, Biochem J 470:255) by the recombinant human Meningioma Expressed Antigen 5 (MGEA5), also referred to as O-GcNAcase (OGA). The hydrolysis FM-GlcNAc (Marker Gene technologies, cat #M1485) results in the formation of B-D-N-glucosamineacetate and fluorescein. The fluorescence of the latter can be measured at excitation wavelength 485 nm and emission wavelength 538 nm. An increase in enzyme activity results in an increase in fluorescence signal. Full length OGA enzyme was purchased at OnGene (cat #TP322411). The enzyme was stored in 25 mM Tris.HCl, pH 7.3, 100 mM glycine, 10% glycerol at −20° C. Thiamet G and GlcNAcStatin were tested as reference compounds (Yuzwa et al. 2008 Nature Chemical Biology 4:483; Yuzwa et al. 2012 Nature Chemical Biology 8:393). The assay was performed in 200 mM Citrate/phosphate buffer supplemented with 0.005% Tween-20. 35.6 g Na2HPO4 2H2O (Sigma, #C0759) were dissolved in 1 L water to obtain a 200 mM solution. 19.2 g citric acid (Merck, #1.06580) was dissolved in 1 L water to obtain a 100 mM solution. pH of the sodiumphosphate solution was adjusted with the citric acid solution to 7.2. The buffer to stop the reaction consists of a 500 mM Carbonate buffer, pH 11.0. 734 mg FM-GlcNAc were dissolved in 5.48 mL DMSO to obtain a 250 mM solution and was stored at −20° C. OGA was used at a 2 nM concentration and FM-GlcNAc at a 100 uM final concentration. Dilutions were prepared in assay buffer.
50 nl of a compound dissolved in DMSO was dispensed on Black Proxiplate TM 384 Plus Assay plates (Perkin Elmer, #6008269) and 3 μl fl-OGA enzyme mix added subsequently. Plates were pre-incubated for 60 min at room temperature and then 2 μl FM-GlcNAc substrate mix added. […] Plates were briefly centrifuged for 1 min at 1000 rpm and incubate at room temperature for 6 h. To stop the reaction 5 μl STOP buffer were added and plates centrifuge again 1 min at 1000 rpm. Fluorescence was quantified in the Thermo Scientific Fluoroskan Ascent or the PerkinElmer EnVision with excitation wavelength 485 nm and emission wavelength 538 nm.
For analysis a best-fit curve is fitted by a minimum sum of squares method. From this an IC50 value and Hill coefficient was obtained. High control (no inhibitor) and low control (saturating concentrations of standard inhibitor) were used to define the minimum and maximum values.

OGA = target: T2, OGA (Homo sapiens, UniProt O60502); test: OGA cellular assay (ICC detection of O-GlcNAcylated proteins in HEK293 cells inducible for P301L mutant human Tau); type: cell-based; conditions: 6 hours incubation; for Emax: HEK293, HEK293 cells inducible for P301L mutant human Tau, maximum = Thiamet G 200 uM; for EC50: HEK293 cells inducible for P301L mutant human Tau, read-out: Cellular hOGA, pEC50 (converted)
T2 construct: endogenous in cells; host or cells: HEK293 cells inducible for P301L mutant human Tau (isoform 2N4R)
T2 sequence (O60502 1-916): T1 sequence (O60502 1-916)
Procedure: HEK293 cells inducible for P301L mutant human Tau (isoform 2N4R) were established at Janssen. Thiamet-G was used for both plate validation (high control) and as reference compound (reference EC50 assay validation). OGA inhibition is evaluated through the immunocytochemical (ICC) detection of O-GlcNAcylated proteins by the use of a monoclonal antibody (CTD110.6; Cell Signaling, #9875) detecting O-GlcNAcylated residues as previously described (Dorfmueller et al. 2010 Chemistry & biology, 17:1250). Inhibition of OGA will result in an increase of O-GlcNAcylated protein levels resulting in an increased signal in the experiment. Cell nuclei are stained with Hoechst to give a cell culture quality control and a rough estimate of immediate compounds toxicity, if any. ICC pictures are imaged with a Perkin Elmer Opera Phenix plate microscope and quantified with the provided software Perkin Elmer Harmony 4.1.
Cells were propagated in DMEM high Glucose (Sigma, #D5796) following standard procedures. 2 days before the cell assay cells are split, counted and seeded in Poly-D-Lysine (PDL) coated 96-wells (Greiner, #655946) plate at a cell density of 12,000 cells per cm^2 (4,000 cells per well) in 100 μl of Assay Medium (Low Glucose medium is used to reduce basal levels of GlcNAcylation) (Park et al. 2014 The Journal of biological chemistry 289:13519). At the day of compound test medium from assay plates was removed and replenished with 90 μl of fresh Assay Medium. 10 μl of compounds at a 10 fold final concentration were added to the wells. Plates were centrifuged shortly before incubation in the cell incubator for 6 hours. DMSO concentration was set to 0.2%. Medium is discarded by applying vacuum. For staining of cells medium was removed and cells washed once with 100 μl D-PBS (Sigma, #D8537). From next step onwards unless other stated assay volume was always 50 μl and incubation was performed without agitation and at room temperature. Cells were fixed in 50 μl of a 4% paraformaldehyde (PFA, Alpha aesar, #043368) PBS solution for 15 minutes at room temperature. […] Before analysis samples were washed 2 times manually for 5 minutes in ICC base buffer.
Imaging is performed using Perkin Elmer Phenix Opera using a water 20×objective and recording 9 fields per well. Intensity readout at 488 nm is used as a measure of O-GlcNAcylation level of total proteins in wells. To assess potential toxicity of compounds nuclei were counted using the Hoechst staining. IC50-values are calculated using parametric non-linear regression model fitting. As a maximum inhibition Thiamet G at a 200 uM concentration is present on each plate. In addition, a concentration response of Thiamet G is calculated on each plate.

Row | SMILES | Emax [1] [%] | IC50 [1] [nM] | also measured
1 | Cc1cc(C[C@H]2CCCN(C(C)c3cc(C4CC4)[nH]n3)C2)cc(C)n1 (mixture of isomers) [Product 21] | 101 | 24.5 | Emax (OGA): 59%; EC50 (OGA): 468 nM
2 | CCOc1cnc(C(C)N2CCC[C@H](Cc3cc(C)nc(C)c3)C2)o1 (mixture of isomers) [Product 30] | 101 | 10.2 | Emax (OGA): 60%; EC50 (OGA): 490 nM
3 | CCC(=O)Nc1cncc(C(C)N2CCC[C@H](Cc3cc(C)nc(C)c3)C2)c1 (mixture of isomers) [Product 38] | 99 | 70.8 | Emax (OGA): 3%; EC50 (OGA): > 1000 nM
4 | CNC(=O)c1cncc(C(C)N2CCC[C@H](Cc3cc(C)nc(C)c3)C2)c1 (mixture of isomers) [Product 40] | 101 | 11.5 | Emax (OGA): 72%; EC50 (OGA): 407 nM
5 | COc1ccc(C)c([C@H](C)N2CCC[C@H](Cc3cc(C)nc(C)c3)C2)n1 [Product 58] |  |  | Enzymatic Emax (%) [1]: 96%; Enzymatic hOGA; pIC50 [1]: 6.1
6 | Cc1cc(C[C@H]2CCCN([C@@H](C)c3cccc(C4CC4)n3)C2)cc(C)n1 [Product 60] |  |  | Enzymatic Emax (%) [1]: 88%; Enzymatic hOGA; pIC50 [1]: 5.81
7 | CC(=O)Nc1cc(CN2CCC[C@H](Cc3cc(C)nc(C)c3)C2)cnn1 [Product 62] | 94 | 513 | 
8 | COc1cc(C[C@H]2CCCN(C(C)c3nc(OC)ccc3F)C2)cc(C)n1 (stereo partly shown) [Product 69] |  | 75.9 | Enzymatic Emax (%) ([1]; listed as 69): 103%
9 | COc1ccc(F)c(C(C)N2CCC[C@H](Cc3cc(C)nc(C(F)(F)F)c3)C2)n1 (stereo partly shown) [Product 71] | 104 | 89.1 | 
10 | COc1cccc(C(C)N2CCCC(c3cc(C)nc(C)c3)C2)n1 (stereo not shown) [Product 73] | 96 | 741 | 
11 | COc1cc(C2CCCN(C(C)c3cc(NC(C)=O)[nH]n3)C2)cc(C)n1 (stereo not shown) [Product 75] | 95 | 562 | 
12 | COc1cc(OC2CCCN(C(C)c3nc(OC)ccc3F)C2)cc(C)n1 (stereo not shown) [Product 81] | 99 | 562 | 
13 | CC(=O)Nc1cc(C(C)N2CCCC(CNc3cc(C)nc(C)c3)C2)[nH]n1 (stereo not shown) [Product 83] | 103 | 60.3 | 
14 | CC(=O)Nc1cc(C(C)N2CCCC(CNc3cc(C)nc(C)c3)C2)[nH]n1 (stereo not shown) [Product 87] |  | 28.8 | 
15 | COc1cccc([C@@H](C)N2CCC[C@H](CNc3cc(C)nc(C(F)(F)F)c3)C2)n1 [Product 92] |  |  | Enzymatic Emax (%) [1]: 74%; Enzymatic hOGA; pIC50 [1]: 5.31
16 | COc1cccc([C@H](C)N2CCC[C@H](CNc3cc(C)nc(C(F)(F)F)c3)C2)n1 [Product 93] |  |  | Enzymatic Emax (%) [1]: 29%; Enzymatic hOGA; pIC50 [1]: <5
17 | COc1cccc([C@@H](C)N2CCC[C@@H](CNc3cc(C)nc(C(F)(F)F)c3)C2)n1 [Product 94] |  |  | Enzymatic Emax (%) [1]: 72%; Enzymatic hOGA; pIC50 [1]: 5.24
18 | CC(=O)Nc1cc(C(C)N2CC[C@@H](Cc3cc(C)nc(C)c3)C2)n[nH]1 (stereo partly shown) [Product 97] | 94 | 575 | 
19 | CC(=O)Nc1cc(C(C)N2CC[C@@H](Cc3cc(C)nc(C)c3)C2)n[nH]1 (stereo partly shown) [Product 104] |  | 2820 | Enzymatic Emax (%) [1]: 82%
20 | COc1ccc(F)c([C@H](C)N2CC[C@H](Cc3ncc(F)cc3F)C2)n1 [Product 109] | 60 | 7590 | 
21 | CC(=O)Nc1cc(C(C)N2CC[C@H](Cc3ncc(C)nc3C)C2)n[nH]1 (stereo partly shown) [Product 110] | 92 | 813 | 
22 | COc1ccc(F)c(C(C)N2CC[C@H](Cc3ncc(C)nc3C)C2)n1 (stereo partly shown) [Product 113] | 74 | 3890 | 
23 | CC(=O)Nc1cc(CN2CCCC(COc3cc(C)nc(C)c3)C2)n[nH]1 (stereo not shown) [Product 119] | 92 | 1230 | 
24 | CC(=O)Nc1nc(CN2CCC[C@H](Cc3cc(C)nc(C)c3)C2)c[nH]1 [Product 135] | 98 | 490 | 
25 | CC(=O)Nc1cc(C(C)N2CCCC(Oc3cc(C)nc(C(F)(F)F)c3)C2)n[nH]1 (stereo not shown) [Product 138] | 81 | 2450 | 
26 | CC(=O)Nc1ncc(CN2CCC[C@H](Cc3cc(C)nc(C)c3)C2)n1C [Product 159] |  | > 10000 | 
27 | COc1ccc(C)c(CN2CCC[C@H](Cc3cc(C)nc(C)c3)C2)n1 [Product 160] | 24 | > 10000 | 
28 | CCOc1cc(CN2CCC[C@H](Cc3cc(C)nc(C)c3)C2)n(C)n1 [Product 161] | 52 | > 10000 | 
29 | Cc1cc(C[C@H]2CCCN(Cc3cnc(C4CC4)[nH]3)C2)cc(C)n1 [Product 165] | 24 | > 10000 | 
